In patent US7105577B2, “Antimicrobial method using a hydroxydiphenyl ether compound” (Ciba Specialty Chemicals Corporation, priority 1999, dated 2006):
Converted amounts (≈) assume the structure as drawn. Like-named read-outs stand apart in the source and are kept apart here.

Columns and labels:
Format in all cases: cell-based
[1] = tested on: Aspergillus niger ATCC 6275; experiment: Agar incorporation test, MIC; details: for MIC: ATCC6275
Excerpt: (§1) Medium: • Nutrient agar as test agar for bacteria: • Mueller hinton agar to cultivate the aerobic bacteria • Mueller hinton bouillon for obtaining the suspension of microorganisms • Ethanol as solvent • Wilkins-Chalgren agar to cultivate the […] bacteria • Sabouraud glucose agar to cultivate the dermatophytes
(§2) Examples of Test bacteria • Staphylococcus aureusATCC 6538 • Staphylococcus hominis DSM 20330 • Escherichia coli NCTC 8196 • Pseudomonas aeruginosa CIP A-22 • Candida albicans ATCC 10231 • Aspergillus niger ATCC 6275
(§3) Procedure: The test substances are dissolved in ethanol, and a dilution series of the compound of the formula (102) in agar are prepared. • Anaerobic bacteria and dermatophytes are activated on agar-plates, and washes off with Mueller-Hinton bouillon. Aerobic bacteria are activated in Mueller-Hinton bouillon overnight. The test germ suspension are diluted with Mueller-Hinton bouillon to a density of McFarland standard 0.5. • 10 μl of each germ suspension is dropped onto the agar plates containing the test substance, and the plates are then incubated at 37° C. for 2 days. (Aerobic bacteria are incubated at 36° C. for 72 hours, anaerobic bacteria are incubated at 30° C. for 72 hours). As controls, the bacterial suspensions are applied to agar plates without test substances.

[2] = tested on: Candida albicans ATCC 10231; experiment: Agar incorporation test, MIC; details: for MIC: ATCC10231
Excerpt: as §1, §2, §3

[3] = tested on: Escherichia coli NCTC 8196; experiment: Agar incorporation test, MIC; details: for MIC: NCTC8196
Excerpt: as §1, §2, §3

[4] = tested on: Staphylococcus hominis DSM 20328; experiment: Agar incorporation test, MIC; details: for MIC: DSM20328, Table 1, Staphylococcus hominis DSM 20328, agar incorporation, read-out: Minimum Inhibitory Concentration, SH
[5] = tested on: Staphylococcus aureus ATCC 6538; experiment: Agar incorporation test, MIC; details: for MIC: ATCC6538
Excerpt: as §1, §2, §3

[6] = tested on: Pseudomonas aeruginosa CIP A-22; experiment: Agar incorporation test, MIC; details: for MIC: CIPA22
Excerpt: as §1, §2, §3

[7] = tested on: Trichophyton mentagrophytes ATCC 9553; experiment: Microbiological data (MIC); details: Table 4
Method: as §1, §3
(§4) Microbiological data of the above compounds (MIC in ppm): […]

[8] = tested on: Actinomyces viscosum DSM 43329; experiment: Microbiological data (MIC); details: Table 4
Method: as §1, §3, §4

[9] = tested on: Staphylococcus epidermidis ATCC 12228; experiment: Microbiological data (MIC); details: Table 4
Method: as §1, §3, §4

[10] = tested on: Selenomonas artemidis ATCC 43528; experiment: Microbiological data (MIC); details: Table 4
Method: as §1, §3, §4

[11] = tested on: Proteus vulgaris ATCC 6896; experiment: Microbiological data (MIC); details: Table 4
Method: as §1, §3, §4

[12] = tested on: Trichophyton rubrum DSM 4167; experiment: Microbiological data (MIC); details: Table 4
Method: as §1, §3, §4

[13] = tested on: Propionibacterium acnes ATCC 11829; experiment: Microbiological data (MIC); details: Table 4
Method: as §1, §3, §4

[14] = tested on: Corynebacterium minutissimum ATCC 23348; experiment: Microbiological data (MIC); details: Table 4
Method: as §1, §3, §4

[15] = tested on: Porphyromonas gingivalis DSM 20709; experiment: Microbiological data (MIC); details: Table 4
Method: as §1, §3, §4

[16] = tested on: Corynebacterium xerosis ATCC 373/ATCC 7711; experiment: Microbiological data (MIC); details: Table 4
Method: as §1, §3, §4

[17] = tested on: Epidermophyton floccosum CBS 55384; experiment: Microbiological data (MIC); details: Table 4
Method: as §1, §3, §4

[18] = tested on: Streptococcus sobrinus DSM 20742; experiment: Microbiological data (MIC); details: Table 4
Method: as §1, §3, §4

[19] = tested on: Malassezia furfur DSM 6171; experiment: Microbiological data (MIC); details: DSM6171, Table 4
Method: as §1, §3, §4

[20] = Table 1, Aspergillus niger ATCC 6275, agar incorporation, read-out: Minimum Inhibitory Concentration, AN
[21] = Table 1, Candida albicans ATCC 10231, agar incorporation, read-out: Minimum Inhibitory Concentration, CA
[22] = Table 1, Escherichia coli NCTC 8196, agar incorporation, read-out: Minimum Inhibitory Concentration, EC
[23] = Table 1, Staphylococcus aureus ATCC 6538, agar incorporation, read-out: Minimum Inhibitory Concentration, SA
[24] = Table 1, Pseudomonas aeruginosa CIP A-22, agar incorporation, read-out: Minimum Inhibitory Concentration, PA

Compound	MIC [1, 20] [µg/mL]	MIC [2, 21] [µg/mL]	MIC [3, 22] [µg/mL]	MIC [4] [µg/mL]	other results
CCCCc1ccc(Oc2ccccc2)cc1O [(104)]	60 (≈ 248 µM)	30 (≈ 124 µM)	30 (≈ 124 µM)	30 (≈ 124 µM)	
CCCc1ccc(Oc2ccccc2)cc1O [(105)]	30 (≈ 131 µM)	30 (≈ 131 µM)	30 (≈ 131 µM)	30 (≈ 131 µM)	
CCCCCc1ccc(Oc2ccccc2)cc1O [(106)]	60 (≈ 234 µM)	60 (≈ 234 µM)	30 (≈ 117 µM)	30 (≈ 117 µM)	
Oc1ccccc1Oc1ccccc1 [(107)]	120 (≈ 644 µM)		30 (≈ 161 µM)	30 (≈ 161 µM)	
CCC(=O)c1ccc(O)c(Oc2ccccc2)c1 [(108)]			120 (≈ 495 µM)	60 (≈ 248 µM)	
CCCC(=O)c1ccc(O)c(Oc2ccccc2)c1 [(109)]	120 (≈ 468 µM)	120 (≈ 468 µM)	30 (≈ 117 µM)	30 (≈ 117 µM)	
O=Cc1ccc(O)c(Oc2ccccc2)c1 [(110)]			30 (≈ 140 µM)		
CCC(C)c1ccccc1Oc1ccccc1O (stereo not shown) [(111)]	120 (≈ 495 µM)	30 (≈ 124 µM)		60 (≈ 248 µM)	
CC(C)c1ccccc1Oc1ccccc1O [(112)]	120 (≈ 526 µM)	60 (≈ 263 µM)		60 (≈ 263 µM)	
Cc1ccccc1Oc1ccccc1O [(113)]	60 (≈ 300 µM)	120 (≈ 599 µM)	30 (≈ 150 µM)	30 (≈ 150 µM)	
CC(C)(C)c1ccccc1Oc1ccccc1O [(114)]	120 (≈ 495 µM)	60 (≈ 248 µM)	30 (≈ 124 µM)	30 (≈ 124 µM)	
CCc1ccccc1Oc1ccccc1O [(115)]	120 (≈ 560 µM)	120 (≈ 560 µM)	120 (≈ 560 µM)	120 (≈ 560 µM)	
CCC(C)c1ccccc1Oc1cccc(O)c1 (stereo not shown) [(116)]	30 (≈ 124 µM)	30 (≈ 124 µM)		30 (≈ 124 µM)	
Oc1ccc(Oc2ccccc2O)cc1 [(117)]			60 (≈ 297 µM)		
Cc1ccc(C(C)C)c(Oc2ccc(O)cc2)c1 [(118)]		50 (≈ 206 µM)	50 (≈ 206 µM)	3 (≈ 12.4 µM)	MIC [5, 23]: 5 µg/mL (≈ 20.6 µM)
Cc1ccc(C2CCCCC2)c(Oc2ccc(O)cc2)c1 [(119)]				3 (≈ 10.6 µM)	MIC [5, 23]: 3 µg/mL (≈ 10.6 µM)
CC(C)CCc1ccc(Oc2ccc(O)cc2)cc1 [(120)]				4 (≈ 15.6 µM)	
Cc1ccc(C(C)(C)C)c(Oc2ccc(O)cc2)c1 [(121)]		13 (≈ 50.7 µM)		5 (≈ 19.5 µM)	MIC [5, 23]: 7 µg/mL (≈ 27.3 µM)
Cc1ccc(C(C)C)cc1Oc1ccc(O)cc1 [(122)]		13 (≈ 53.6 µM)		6 (≈ 24.8 µM)	MIC [5, 23]: 6 µg/mL (≈ 24.8 µM)
Oc1ccc(Oc2ccc(CCc3ccccc3)cc2)cc1 [(123)]				8 (≈ 27.6 µM)	
CCc1ccc(Oc2ccc(O)cc2)c(C(C)C)c1 [(124)]		60 (≈ 234 µM)		8 (≈ 31.2 µM)	
CCCc1ccc(Oc2ccc(O)cc2)cc1 [(125)]		30 (≈ 131 µM)	120 (≈ 526 µM)	30 (≈ 131 µM)	
CCc1ccc(Oc2ccc(O)cc2)cc1 [(126)]		120 (≈ 560 µM)	120 (≈ 560 µM)	120 (≈ 560 µM)	
Oc1ccc(Oc2ccccc2)cc1 [(127)]		50 (≈ 269 µM)	100 (≈ 537 µM)		MIC [6, 24]: 50 µg/mL (≈ 269 µM); MIC [5, 23]: 500 µg/mL (≈ 2690 µM)
Oc1ccc(Oc2ccc(C(F)(F)F)cc2)cc1 [(128)]		50 (≈ 197 µM)	50 (≈ 197 µM)		MIC [6, 24]: 50 µg/mL (≈ 197 µM); MIC [5, 23]: 50 µg/mL (≈ 197 µM)
Cc1ccc(C)c(Oc2ccc(O)cc2)c1 [(129)]		25 (≈ 117 µM)			MIC [6, 24]: 25 µg/mL (≈ 117 µM); MIC [5, 23]: 50 µg/mL (≈ 233 µM)
CCCc1ccc(Oc2ccc(O)cc2)c(C(C)C)c1 [(130)]		20 (≈ 74 µM)			MIC [6, 24]: 20 µg/mL (≈ 74 µM); MIC [5, 23]: 50 µg/mL (≈ 185 µM)
Cc1ccc(C(C)C)cc1Oc1ccc(O)cc1 [R1 = Me R2 = i-Propyl]					MIC, Trichophyton mentagrophytes ATCC 9553 [7]: 6.25 ppm; MIC, Actinomyces viscosum DSM 43329 [8]: 80 ppm; MIC, Staphylococcus epidermidis ATCC 12228 [9]: 6.25 ppm; MIC, Selenomonas artemidis ATCC 43528 [10]: 10 ppm; MIC, Proteus vulgaris ATCC 6896 [11]: >200 ppm; MIC, Trichophyton rubrum DSM 4167 [12]: 5 ppm; MIC, Propionibacterium acnes ATCC 11829 [13]: 10 ppm; MIC, Corynebacterium minutissimum ATCC 23348 [14]: 6.25 ppm; MIC, Porphyromonas gingivalis DSM 20709 [15]: 5 ppm; MIC, Corynebacterium xerosis ATCC 373/ATCC 7711 [16]: 3.125 ppm; MIC, Epidermophyton floccosum CBS 55384 [17]: <3.125 ppm; MIC, Streptococcus sobrinus DSM 20742 [18]: 5 ppm; MIC, Aspergillus niger ATCC 6275 ([1]; Table 4): 50 ppm; MIC, Candida albicans ATCC 10231 ([2]; Table 4): 12.5 ppm; MIC, Escherichia coli NCTC 8196 ([3]; Table 4): >200 ppm; MIC, Pseudomonas aeruginosa CIP A-22 ([6]; Table 4): >200 ppm; MIC, Staphylococcus aureus ATCC 6538 ([5]; Table 4): 6.25 ppm; MIC, Staphylococcus hominis DSM 20328 ([4]; Table 4): 6.25 ppm
Cc1ccc(C)c(Oc2ccc(O)cc2)c1 [R1 = R2 = Me]					MIC, Staphylococcus epidermidis ATCC 12228 [9]: 25.0 ppm; MIC, Proteus vulgaris ATCC 6896 [11]: >200 ppm; MIC, Corynebacterium minutissimum ATCC 23348 [14]: 25.0 ppm; MIC, Corynebacterium xerosis ATCC 373/ATCC 7711 [16]: 25.0 ppm; MIC, Candida albicans ATCC 10231 ([2]; Table 4): 25.0 ppm; MIC, Escherichia coli NCTC 8196 ([3]; Table 4): >200 ppm; MIC, Pseudomonas aeruginosa CIP A-22 ([6]; Table 4): >200 ppm; MIC, Staphylococcus aureus ATCC 6538 ([5]; Table 4): 50.0 ppm
Cc1ccc(C(C)(C)C)c(Oc2ccc(O)cc2)c1 [R1 = t-Butyl R2 = Me, 4-(2-t-Butyl-5-methylphenoxy)phenol]					MIC ([7]; Trichophyton mentagrophytes, ATCC9553): 3.4 µg/mL (≈ 13.3 µM); MIC [19]: 2.5 µg/mL (≈ 9.75 µM); MIC ([8]; Actinomyces, DSM43329): 5 µg/mL (≈ 19.5 µM); MIC ([9]; Staphylococcus epidermidis, ATCC12228): 3.4 µg/mL (≈ 13.3 µM); MIC ([10]; Centipeda artemidis, ATCC43528): 5 µg/mL (≈ 19.5 µM); MIC ([11]; Proteus vulgaris, ATCC6896): > 100 µg/mL; MIC ([12]; Trichophyton rubrum, DSM4167): 10 µg/mL (≈ 39 µM); MIC ([13]; Cutibacterium acnes, ATCC11829): 5 µg/mL (≈ 19.5 µM); MIC ([14]; Corynebacterium minutissimum, ATCC23348): 3.4 µg/mL (≈ 13.3 µM); MIC ([15]; Porphyromonas gingivalis, DSM20709): 1.25 µg/mL (≈ 4.88 µM); MIC ([16]; Corynebacterium xerosis): 3.4 µg/mL (≈ 13.3 µM); MIC ([17]; Epidermophyton floccosum, CBS55384): 1.65 µg/mL (≈ 6.44 µM); MIC ([18]; Streptococcus sobrinus, DSM20742): 5 µg/mL (≈ 19.5 µM); MIC ([1]; Aspergillus niger, Table 4, read-out: MIC, Aspergillus niger ATCC 6275): 6.75 µg/mL (≈ 26.3 µM); MIC ([2]; Candida albicans, Table 4, read-out: MIC, Candida albicans ATCC 10231): 12.5 µg/mL (≈ 48.8 µM); MIC ([3]; Escherichia coli, Table 4, read-out: MIC, Escherichia coli NCTC 8196): > 100 µg/mL; MIC ([6]; Pseudomonas aeruginosa, Table 4, read-out: MIC, Pseudomonas aeruginosa CIP A-22): > 100 µg/mL; MIC ([5]; Staphylococcus aureus, Table 4, read-out: MIC, Staphylococcus aureus ATCC 6538): 6.75 µg/mL (≈ 26.3 µM)
